Experimental data reported in PubChem BioAssay (NCI).
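Test compounds were applied to cells in 96-well plates for 48 hours at 5 doses. TGI is the concentration that stops growth completely.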

Columns and labels:
Experiment in all cases: NCI tumour cell line growth inhibition, 48 h
[1] = system: OVCAR-4 ovarian
[2] = system: HCT-15 colon
[3] = system: UACC-62 melanoma
[4] = system: MDA-N
[5] = system: NCI-H460 lung
[6] = system: RPMI-8226 leukemia
[7] = system: OVCAR-8 ovarian
[8] = system: MDA-MB-435
[9] = system: MOLT-4 leukemia
[10] = system: SN12C renal
[11] = system: SNB-75 CNS
[12] = system: SF-295 CNS
[13] = system: BT-549 breast
[14] = system: UO-31 renal
[15] = system: SK-OV-3 ovarian
[16] = system: MDA-MB-231 breast
[17] = system: U251 CNS
[18] = system: A498 renal
[19] = system: 786-0 renal
[20] = system: HOP-62 NSCLC
[21] = system: K-562 leukemia
[22] = system: NCI-H226 lung
[23] = system: NCI/ADR-RES ovarian
[24] = system: HOP-92 NSCLC
[25] = system: CAKI-1 renal
[26] = system: OVCAR-5 ovarian
[27] = system: SW-620 colon
[28] = system: DU-145 prostate
[29] = system: SNB-19 CNS
[30] = system: ACHN renal
[31] = system: MCF7 breast
[32] = system: COLO 205 colon
[33] = system: OVCAR-3 ovarian
[34] = system: HCT-116 colon
[35] = system: M14 melanoma
[36] = system: A549 NSCLC
[37] = system: UACC-257 melanoma
[38] = system: LOX IMVI melanoma
[39] = system: HS 578T breast
[40] = system: TK-10 renal
[41] = system: HCC-2998 colon
[42] = system: SK-MEL-28 melanoma
[43] = system: NCI-H23 lung
[44] = system: SF-268 CNS
[45] = system: SK-MEL-2 melanoma
[46] = system: SF-539 CNS
[47] = system: KM12 colon
[48] = system: T-47D breast
[49] = system: SK-MEL-5 melanoma
[50] = system: PC-3 prostate
[51] = system: HT29 colon
[52] = system: CCRF-CEM leukemia
[53] = system: EKVX NSCLC
[54] = system: NCI-H522 lung
[55] = system: RXF 393 renal
[56] = system: HL-60(TB) leukemia
[57] = system: IGROV1 ovarian
[58] = system: SR leukemia
[59] = system: MALME-3M melanoma

CSc1scc2c1/C(=N/NC(N)=O)CCC2
TGI [1]: > 100 µM
TGI [2]: > 100 µM
TGI [3]: > 100 µM
TGI [4]: > 100 µM
TGI [5]: > 100 µM
TGI [6]: > 100 µM
TGI [7]: > 100 µM
TGI [8]: > 100 µM
TGI [9]: > 100 µM
TGI [10]: > 100 µM
TGI [11]: > 100 µM
TGI [12]: > 100 µM
TGI [13]: > 100 µM
TGI [14]: > 100 µM
TGI [15]: > 100 µM
TGI [16]: > 100 µM
TGI [17]: > 100 µM
TGI [18]: > 100 µM
TGI [19]: > 100 µM
TGI [20]: > 100 µM
TGI [21]: > 100 µM
TGI [22]: > 100 µM
TGI [23]: 73.4 µM
TGI [24]: 90 µM
TGI [25]: > 100 µM
TGI [26]: > 100 µM
TGI [27]: > 100 µM
TGI [28]: > 100 µM
TGI [29]: > 100 µM
TGI [30]: > 100 µM
TGI [31]: > 100 µM
TGI [32]: > 100 µM
TGI [33]: > 100 µM
TGI [34]: > 100 µM
TGI [35]: > 100 µM
TGI [36]: > 100 µM
TGI [37]: > 100 µM
TGI [38]: > 100 µM
TGI [39]: > 100 µM
TGI [40]: > 100 µM
TGI [41]: > 100 µM
TGI [42]: > 100 µM
TGI [43]: > 100 µM
TGI [44]: > 100 µM
TGI [45]: > 100 µM
TGI [46]: > 100 µM
TGI [47]: > 100 µM
TGI [48]: > 100 µM
TGI [49]: > 100 µM
TGI [50]: > 100 µM
TGI [51]: > 100 µM
TGI [52]: > 100 µM

NCCCNCCCCN1CC1
TGI [1]: 1.53 µM
TGI [2]: > 33.2 µM
TGI [3]: 68.8 µM
TGI [4]: > 100 µM
TGI [5]: > 100 µM
TGI [6]: > 21.3 µM
TGI [8]: > 100 µM
TGI [11]: 4.3 µM
TGI [12]: > 55.9 µM
TGI [13]: > 20.5 µM
TGI [14]: > 100 µM
TGI [17]: > 26.2 µM
TGI [18]: 2.14 µM
TGI [20]: 14.1 µM
TGI [21]: > 20.7 µM
TGI [22]: > 20.9 µM
TGI [23]: > 20.7 µM
TGI [24]: 4.91 µM
TGI [25]: 0.407 µM
TGI [26]: > 33.8 µM
TGI [28]: 6.17 µM
TGI [29]: > 23.8 µM
TGI [31]: > 100 µM
TGI [32]: 4.06 µM
TGI [33]: 4.78 µM
TGI [34]: > 100 µM
TGI [35]: > 22.6 µM
TGI [36]: > 44.5 µM
TGI [37]: 4.71 µM
TGI [38]: 11.8 µM
TGI [53]: 16.7 µM
TGI [39]: 66.5 µM
TGI [40]: > 23.2 µM
TGI [41]: > 36.2 µM
TGI [42]: > 20.1 µM
TGI [43]: > 28 µM
TGI [44]: > 29.9 µM
TGI [54]: 11.4 µM
TGI [46]: 3.4 µM
TGI [55]: 7.83 µM
TGI [47]: > 30.7 µM
TGI [48]: 1.02 µM
TGI [49]: 11.7 µM
TGI [50]: > 34.9 µM
TGI [51]: > 37.5 µM

OC(CC(O)(C(F)(F)F)C(F)(F)F)c1ccc(C(O)CC(O)(C(F)(F)F)C(F)(F)F)cc1 (stereo not given)
TGI [1]: 29.8 µM
TGI [2]: 42.8 µM
TGI [3]: 25.2 µM
TGI [4]: 35.4 µM
TGI [5]: 31.6 µM
TGI [6]: 48.8 µM
TGI [7]: 29.5 µM
TGI [8]: 32.7 µM
TGI [9]: 35.8 µM
TGI [56]: 37.4 µM
TGI [11]: 31.8 µM
TGI [12]: 32.5 µM
TGI [14]: 23 µM
TGI [15]: 31.9 µM
TGI [16]: 28.7 µM
TGI [17]: 31.1 µM
TGI [18]: 25.1 µM
TGI [19]: 34.9 µM
TGI [20]: 35 µM
TGI [21]: 60.7 µM
TGI [57]: 23.3 µM
TGI [23]: 29.6 µM
TGI [24]: 25.9 µM
TGI [25]: 27.3 µM
TGI [26]: 31.1 µM
TGI [27]: 35.8 µM
TGI [28]: 28.3 µM
TGI [29]: 30.9 µM
TGI [30]: 27.6 µM
TGI [33]: 18.2 µM
TGI [34]: 24 µM
TGI [58]: 40.2 µM
TGI [35]: 29.9 µM
TGI [36]: 28.6 µM
TGI [37]: 32.2 µM
TGI [38]: 30.7 µM
TGI [53]: 28 µM
TGI [39]: 47.7 µM
TGI [41]: 33.3 µM
TGI [42]: 30.6 µM
TGI [43]: 26.7 µM
TGI [44]: 28.9 µM
TGI [45]: 38.4 µM
TGI [54]: 40.5 µM
TGI [59]: 27.6 µM
TGI [46]: 29.4 µM
TGI [55]: 30.7 µM
TGI [48]: 31.3 µM
TGI [49]: 27.3 µM
TGI [50]: 32.5 µM
TGI [51]: 25.1 µM
TGI [52]: 36.9 µM

CNc1ncnc2c1cnn2Cc1cn(COCC(O)CO)nn1 (stereo not given)
TGI [1]: > 100 µM
TGI [2]: > 100 µM
TGI [3]: > 100 µM
TGI [4]: > 100 µM
TGI [6]: > 100 µM
TGI [7]: > 100 µM
TGI [8]: > 100 µM
TGI [10]: > 100 µM
TGI [56]: > 100 µM
TGI [12]: > 100 µM
TGI [13]: > 100 µM
TGI [14]: > 100 µM
TGI [15]: > 100 µM
TGI [16]: > 100 µM
TGI [17]: > 100 µM
TGI [18]: > 100 µM
TGI [19]: > 100 µM
TGI [20]: > 100 µM
TGI [57]: > 100 µM
TGI [22]: > 100 µM
TGI [23]: > 100 µM
TGI [24]: > 100 µM
TGI [25]: > 100 µM
TGI [26]: > 100 µM
TGI [27]: > 100 µM
TGI [28]: > 100 µM
TGI [29]: > 100 µM
TGI [30]: > 100 µM
TGI [31]: > 100 µM
TGI [32]: > 100 µM
TGI [33]: > 100 µM
TGI [34]: > 100 µM
TGI [35]: > 100 µM
TGI [36]: > 100 µM
TGI [37]: > 100 µM
TGI [38]: > 100 µM
TGI [53]: > 100 µM
TGI [39]: 20.3 µM
TGI [40]: > 100 µM
TGI [41]: > 100 µM
TGI [42]: > 100 µM
TGI [43]: > 100 µM
TGI [44]: 22 µM
TGI [45]: > 100 µM
TGI [46]: > 100 µM
TGI [47]: > 100 µM
TGI [48]: > 100 µM
TGI [49]: > 100 µM
TGI [50]: > 100 µM
TGI [51]: > 100 µM
TGI [52]: > 100 µM
